# Laboratory results taken from patent US11419918B2, “Treatment of biliary cirrhosis based on oxyntomodulin analogue GLP-1R/GCGR dual-target agonist peptide” (Shenzhen Turier Biotech Co., Ltd., priority 2017, dated 2022).
# Numbered stars: 1 amine (or outer) side, 2 acyl side, 3 side chain; on linkers, the order of the positions; unused ones are H or OH. Square brackets hold non-standard residues; d marks the D form. Primed or numbered codes have the meaning given here. Side chains are listed from the residue outwards. Ends that are not written are not given here. * marks the point of attachment. C18 diacid = O=C(O)CCCCCCCCCCCCCCCCC(=O)*; γGlu = O=C(O)[C@H](CCC(=O)[*:2])N[*:1]; Palmitoyl = CCCCCCCCCCCCCCCC(=O)*; PEG2′ = not defined here; Aib = CC(C)(N)C(=O)O
# What was measured:
# [1] = system: human hepatic stellate cells (LX-2); assay: In vitro inhibition of hepatic fibrosis: expression of activation marker α-SMA in LX-2 cells (Western Blot, β-actin internal reference); type: cell-based; conditions: 10.0 μM, 48 hours, negative control (PBS) = 100%
# In short: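 LX-2 cells grown in DMEM high glucose + 10% FBS to ~70% confluence, then exposed to polypeptides (in PBS) at different doses for 48 h; PBS-only negative control. α-SMA quantified by Western blot densitometry normalised to β-actin, expressed relative to control set at 100%.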
# [2] = system: BDL-induced cholestasis hepatic fibrosis in rats; assay: Bile duct ligation (BDL)-induced hepatic fibrosis in rats (biliary cirrhosis rat model); type: in vivo, SD rats; conditions: 50 μg/kg subcutaneous every two days, 14 days
# Protocol: 1. Experimental Drugs: polypeptide compounds 3, 6, 7, 10, 17, 20, 37, 38, 39, 40, 44, 46, Obeticholic Acid (Abbr. OCA, CAS:459789-99-2, purchased from Zhejiang Warrant Pharmaceutical Co., Ltd.) and Liraglutide. Saving condition was −20° C.
# 128 male SD rats with body weight of 200-230 g were randomly divided into sixteen groups, which were respectively:
# SD rats with body weight of 200-230 g at SPF level were provided by Lanzhou University Laboratory Animal Center. After rats were quarantined in the room (SPF environment) for one week, model rat and rat in sham-operated group were subject to intraperitoneal injection and anesthesia with 0.6% pentobarbital sodium solution, and operation was performed on a super clean bench after anesthesia. Bilateral ligation was conducted on model rat after the common bile duct was separated, and ligation was not conducted on rat in sham-operated group, but only the common bile duct was separated. Administration was started from the next day of the operation.
# Administration was started from the first day of the operation, and subcutaneous injection of compounds 3, 6, 7, 10, 17, 20, 37, 38, 39, 40, 44, 46 and Liraglutide with 50 μg/kg was performed every two days; intraperitoneal injection for the Obeticholic Acid administration group with 7.5 mg/kg was performed every day; as for the normal saline group, injection was performed every day. During the administration, changes in vital signs of rats were observed every day.
# After the end of two weeks of administration cycle (14 days), the rats were killed to collect materials for subsequent biological determination experiments. The livers were taken out for HE dye, Sirius Red dye and IHC dye. Image-pro plus and Graph pad software were used for statistics.
Substance,"Relative expression of α-SMA (α-SMA/β-actin, %) [1] [%]",ALT in the serum (FIG. 6) [2],"BDL-induced hepatic fibrosis and inflammation (HE, Sirius Red, IHC sections) [2]","collagenous fiber deposition in liver (Sirius Red dyed sections, FIGS. 2, 4) [2]",content of hydroxyproline of the liver (FIG. 7) [2],"α-SMA in liver (IHC dyed sections, FIGS. 3, 5) [2]"
His-(D-Ser)-Gln-Gly-Thr-Phe-Thr-Ser-Asp-Tyr-Ser-Lys(PEG2-PEG2-γGlu-CO(CH2)16CO2H)-Lys-Leu-Asp-Aib-Arg-Arg-Ala-Gln-Asp-Phe-Val-Gln-Trp-Leu-Met-Asn-Thr-Gly-Gly-Pro-Ser-Ser-Gly-Ala-Pro-Pro-Pro-Ser-NH2 (H[dS]QGTFTSDYSK([PEG2′-PEG2′-γGlu-C18 diacid])KLD[Aib]RRAQDFVQWLMNTGGPSSGAPPPS-NH2) [Compound 20],28.39,significantly inhibit,significantly reduce,significantly inhibit,significantly inhibit,significantly inhibit
His-(D-Ser)-Gln-Gly-Thr-Phe-Thr-Ser-Asp-Tyr-Ser-Lys-Tyr-Leu-Asp-Aib-Lys(PEG2-PEG2-CO(CH2)16CO2H)-Arg-Ala-Gln-Asp-Phe-Val-Gln-Trp-Leu-Met-Asn-Thr-Gly-Gly-Pro-Ser-Ser-Gly-Ala-Pro-Pro-Pro-Ser-NH2 (H[dS]QGTFTSDYSKYLD[Aib]K([PEG2′-PEG2′-C18 diacid])RAQDFVQWLMNTGGPSSGAPPPS-NH2) [Compound 10],39.49,significantly inhibit,significantly reduce,significantly inhibit,significantly inhibit,significantly inhibit
His-(D-Ser)-Gln-Gly-Thr-Phe-Thr-Ser-Asp-Tyr-Ser-Lys-Tyr-Leu-Asp-Aib-Lys(PEG2-PEG2-γGlu-CO(CH2)16CO2H)-Arg-Ala-Gln-Asp-Phe-Val-Gln-Trp-Leu-Met-Asn-Thr-Gly-Gly-Pro-Ser-Ser-Gly-Ala-Pro-Pro-Pro-Ser-NH2 (H[dS]QGTFTSDYSKYLD[Aib]K([PEG2′-PEG2′-γGlu-C18 diacid])RAQDFVQWLMNTGGPSSGAPPPS-NH2) [Compound 7],40.52,significantly inhibit,significantly reduce,significantly inhibit,significantly inhibit,significantly inhibit
His-(D-Ser)-Gln-Gly-Thr-Phe-Thr-Ser-Asp-Tyr-Ser-Lys-Tyr-Leu-Asp-Lys(PEG2-PEG2-γGlu-CO(CH2)14CH3)-Arg-Arg-Ala-Gln-Asp-Phe-Val-Gln-Trp-Leu-Leu-Asn-Thr-Gly-Gly-Pro-Ser-Ser-Gly-Ala-Pro-Pro-Pro-Ser-NH2 (H[dS]QGTFTSDYSKYLDK([PEG2′-PEG2′-γGlu-Palmitoyl])RRAQDFVQWLLNTGGPSSGAPPPS-NH2) [Compound 40],37.55,significantly inhibit,significantly reduce,significantly inhibit,significantly inhibit,significantly inhibit
His-(D-Ser)-Gln-Gly-Thr-Phe-Thr-Ser-Asp-Tyr-Ser-Lys-Tyr-Leu-Asp-Lys(PEG2-PEG2-γGlu-CO(CH2)14CH3)-Arg-Arg-Ala-Gln-Asp-Phe-Val-Gln-Trp-Leu-Met-Asn-Thr-Gly-Gly-Pro-Ser-Ser-Gly-Ala-Pro-Pro-Pro-Ser-NH2 (H[dS]QGTFTSDYSKYLDK([PEG2′-PEG2′-γGlu-Palmitoyl])RRAQDFVQWLMNTGGPSSGAPPPS-NH2) [Compound 6],29.19,significantly inhibit,significantly reduce,significantly inhibit,significantly inhibit,significantly inhibit
